Test results reported in US20220089636A1, “TETRAZOLONE SUBSTITUTED STEROIDS AND USE THEREOF” (Beijing Xuanyi PharmaSciences Co., Ltd., priority 2019, published 2022).
Read-outs that look alike come from different tables or passages of the source.

What was measured:
[1] = test system: PTZ-treated mice; experiment: Acute PTZ (pentylenetetrazol-induced seizure) assay; type: in vivo, Male CD-1 mice; conditions: 3 mg/kg oral gavage 60 min prior to PTZ 120 mg/kg s.c.; observed 30 min
Method: The anticonvulsant effect of test compounds were assessed in the pentylenetetazol-induced seizure assay in mice similar to methods described in Giardina & Gasior (2009) Curr Protoc Pharmacol., Chapter 5. Male CD-1 mice were housed in groups of five under controlled conditions (temperature of 22±2° C. and 12:12 light-dark cycle, lights on at 8:00 am) and water and food were available ad libitum. The mice were housed for 1 week prior to behavioral testing, at which time they weighed 25-35 g. Pentylenetetrazol (PTZ, Sigma) was dissolved in sterile 0.9% saline at a concentration of 12 mg/mL concentration for subcutaneous administration. Test compounds were formulated and administered via oral gavage at 60 minutes prior to PTZ injection. AU solutions were made fresh and were given in a volume of 10 ml/kg body weight.
Mice were acclimated to the test room for at least 30 min before compound administration. Mice were randomized into at least four test groups (vehicle and at least three doses of the test compound) with 10 mice per group. […] Following the drug pretreatment time, the mice were injected s.c. with PTZ (120 mg/kg). Immediately following the PTZ injection, mice were individually placed into observation chambers (25×15×15 cm) and a three-channel timer was started. Each mouse was continuously observed for 30 min and the following behaviors were recorded by observers blinded to the treatments: 1) latency to clonic convulsions that persist for 3 sec and followed by an absence of righting reflex 2) latency to tonic convulsions, characterized by the rigid extension of all four limbs that exceeded a 90 degree angle with the body 3) latency to death 4) number of clonic and tonic convulsions. Data are presented as mean±S.E.M and one-way analysis of variance with Dunnetfs or Bonferroni's post-hoc test was used to detect significant differences in latency and number between the vehicle and dose group, p values<0.05 were regarded as statistically significant.

[2] = Mouse PK study (i.v. and p.o.); type: in vivo; conditions: plasma, male CD1 mice; for half-life: read-out: T1/2 (hr) i.v. (converted); for Vd: read-out: Vss; for bioavailability: 5 mg/kg p.o. vs 1 mg/kg i.v.
Method: Test compounds were dosed to male CD1 mice at 5 mg/kg by oral gavage (p.o.) or 1 mg/kg by intravenous injection (i.v.). Blood samples were taken at 0.083, 0.25, 0.5, 1.0, 3.0, 6.0 and 24 hours post i.v. dosing and at 0.25, 0.5, 1.0, 3.0, 6.0 and 24 hours post p.o. dosing. The plasma concentration of compounds were determined by HPLC.

[3] = molecular target: T1, α1β2γ2 GABAA receptor (Homo sapiens, UniProt P14867+P47870); experiment: Patch clamp electrophysiology assay of recombinant α1β2γ2 GABAA receptors (potentiation of 2 μM GABA-evoked Cl- current); type: cell-based; conditions: HEK293T cells stably transfected with α1β2γ2 GABAA; for EC50: whole cell, 2 μM GABA, -80 mV
T1 construct: expressed in transfected cells
T1 sequence (P14867 28-456): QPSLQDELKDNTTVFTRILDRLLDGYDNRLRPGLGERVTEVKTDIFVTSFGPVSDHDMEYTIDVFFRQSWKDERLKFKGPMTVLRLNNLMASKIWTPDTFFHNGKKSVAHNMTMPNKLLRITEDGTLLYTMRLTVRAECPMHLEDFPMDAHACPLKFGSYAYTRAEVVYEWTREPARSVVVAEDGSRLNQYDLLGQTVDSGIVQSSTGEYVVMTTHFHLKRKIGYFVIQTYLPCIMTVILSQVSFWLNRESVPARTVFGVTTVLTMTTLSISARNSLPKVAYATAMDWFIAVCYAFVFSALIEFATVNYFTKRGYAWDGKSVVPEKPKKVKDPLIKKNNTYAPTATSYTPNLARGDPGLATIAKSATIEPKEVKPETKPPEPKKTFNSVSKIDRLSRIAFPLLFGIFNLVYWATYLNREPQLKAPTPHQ
T1 sequence (P47870 25-512 limits assumed): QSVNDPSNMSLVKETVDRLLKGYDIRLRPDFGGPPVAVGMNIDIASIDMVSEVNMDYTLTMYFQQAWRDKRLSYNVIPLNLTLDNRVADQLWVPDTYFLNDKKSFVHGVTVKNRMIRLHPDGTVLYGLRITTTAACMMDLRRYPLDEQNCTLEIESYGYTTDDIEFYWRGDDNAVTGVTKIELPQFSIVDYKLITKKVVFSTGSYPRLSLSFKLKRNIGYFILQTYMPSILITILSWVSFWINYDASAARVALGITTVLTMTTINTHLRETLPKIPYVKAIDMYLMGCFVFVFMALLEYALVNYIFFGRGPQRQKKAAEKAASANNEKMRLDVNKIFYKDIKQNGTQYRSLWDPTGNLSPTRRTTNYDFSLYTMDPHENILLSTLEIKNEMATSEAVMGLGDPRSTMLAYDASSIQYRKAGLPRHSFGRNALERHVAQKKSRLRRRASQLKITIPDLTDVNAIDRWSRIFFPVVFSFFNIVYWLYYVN
T1 sequence (P18507 40-475 partner): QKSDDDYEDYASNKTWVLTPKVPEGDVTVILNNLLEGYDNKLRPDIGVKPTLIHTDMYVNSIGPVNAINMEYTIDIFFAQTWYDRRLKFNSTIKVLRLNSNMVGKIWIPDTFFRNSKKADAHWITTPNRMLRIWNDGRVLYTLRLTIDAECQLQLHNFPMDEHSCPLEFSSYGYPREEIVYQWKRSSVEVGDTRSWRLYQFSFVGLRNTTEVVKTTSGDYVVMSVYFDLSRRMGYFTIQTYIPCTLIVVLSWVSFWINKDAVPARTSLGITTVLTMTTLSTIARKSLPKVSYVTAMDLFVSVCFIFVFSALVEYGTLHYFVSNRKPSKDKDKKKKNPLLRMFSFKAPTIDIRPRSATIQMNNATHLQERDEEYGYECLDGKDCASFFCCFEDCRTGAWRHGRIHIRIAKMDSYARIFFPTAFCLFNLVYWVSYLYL
Method: Cellular electrophysiology is used to measure the pharmacological properties of GABAA receptor modulators in heterologous cell systems. Each compound is tested for its ability to affect GABA mediated currents at a submaximal agonist dose (GABA EC20=2 μM). HEK293T cells are stably transfected with the α1β2γ2 subunits of the GABAA receptor. Flasks or dishes of HEK293 GABAA cells were maintained in the medium (DMEM, 11% (v/v) heat inactivated FBS, 100 or 200 μg/ml G418, 40 μg/ml Hygromycin B, 80 μg/ml Zeocin) and incubated at 37° C. in a humidified incubator with 5% CO2. 12 to 24 hours prior to electrophysiological recordings, the cells were plated on glass cover slips placed in culture dishes and maintained under the same incubation and media conditions. The number of cells being plated on the cover slip should reach a confluence rate at which majority of the cells are single.
For the electrophysiological recordings in the study the following external and internal solutions were used (Table 1):
HEKA EPC 10 USB patch clamp amplifier (from HEKA Elektronik, Germany) was used in the whole cell recording. A cover slip with plenty of single HEK293T-GABAA cells on the surface was removed and placed into a continuously perfused (approximately 1-2 ml/minute) recording chamber mounted on an inverted microscope. GABAA Cl^− current was recorded from single cell using standard whole cell recording techniques. 2 μM GABA was used to evoke GABAA Cl^− current (2 μM of GABA was the EC10-EC20 value of agonist GABA obtained internally on the stable GABAA cells used in this study). After achieving break-in (whole-cell) configuration, the cell was voltage clamped at a holding potential of −80 mV. Only stable cells meeting the recording parameters (membrane resistance Rm>500 MΩ, access resistance (Ra)<15 MΩ, leak current<100 pA in 90% of the recording time) were used. 2 μM GABA was applied to the cell to induce stable Cl^− current first as control for about 2 seconds, test compounds (i.e., compounds of formula (AI), (I), (AII), and (II), or any subgenera thereof) were followed to be applied to the cells for 3 min, then 2 μM GABA was applied to observe the potentiation effect on the GABAA Cl^− current. Different doses of test compound from low to high were applied to the same cell when the cell was stable. A cell was considered stable when current size evoked by 2 μM GABA applied to the cell from time to time was similar. To minimize the possible desensitation of GABAA Cl^− current, duration between applications of test articles was set to 180 seconds.
Test compounds were dissolved in DMSO to form stock solutions (10 mM). Test compounds were diluted to 0.003, 0.01, 0.03, 0.1, 0.3, 1, 3 and 10 μM in bath solution. AU concentrations of test articles were tested on each cell. Data were analyzed using software provided by HEKA, Microsoft Excel and Graphpad Prism (Table 2).

[4] = iv, 1 mg/kg i.v., read-out: AUClast (hr*ng/mL) i.v.
[5] = po, 5 mg/kg p.o., read-out: AUClast (hr*ng/mL) p.o.

Row | SMILES | Clonic Seizure Latency (sec) (Mean) [1] | Clonic Seizure Number (Mean) [1] | Mortality (%) [1] [%] | Onset of death (sec) (Mean) [1] | Tonic Seizure Latency (sec) (Mean) [1] | Tonic Seizure Number (Mean) [1] | clearance ([2]; iv, 1 mg/kg i.v.) [mL/min/kg] | AUC(0-t) [2, 4] [ng·h/mL] | half-life ([2]; iv, 1 mg/kg i.v.) [h] | Vd ([2]; iv, 1 mg/kg i.v.) [L/kg] | Cmax ([2]; po, 5 mg/kg p.o.) [ng/mL] | Tmax ([2]; po, 5 mg/kg p.o.) [h] | bioavailability ([2]; po) [%] | AUC(0-t) [2, 5] [ng·h/mL] | EC50 [3] [nM] | Emax ([3]; HEK-293T, potentiation of 2 μM GABA current) [%]
1 | C[C@@]1(O)CC[C@H]2[C@H](CC[C@@H]3[C@@H]2CC[C@]2(C)[C@@H](C(=O)Cn4nnn(-c5ccc(C#N)cc5)c4=O)CC[C@@H]32)C1 [Example 13, 4-(4-(2-((3R,5R,8R,9R,10S,13S,14S,17S)-3-hydroxy-3,13-dimethylhexadecahydro-1H-cyclopenta[a]phenanthren-17-yl)-2-oxoethyl)-5-oxo-4,5-dihydro-1H-tetrazol-1-yl)benzonitrile] | 1012 + 263.6 sec | 0.7 ± 0.3 | 0.0 | 1800 + 0.0 sec | 1800 + 0.0 sec | 0.0 + 0.0 | 5.67 | 2640 | 8.03 | 2.94 | 479 | 1 | 41.5 | 5760 | 13 | –
2 | C[C@@]1(O)CC[C@H]2[C@H](CC[C@@H]3[C@@H]2CC[C@]2(C)[C@@H](C(=O)Cn4nnn(-c5ccncc5)c4=O)CC[C@@H]32)C1 [Example 17, 1-(2-((3R,5R,8R,9R,10S,13S,14S,17S)-3-hydroxy-3,13-dimethylhexadecahydro-1H-cyclopenta[a]phenanthren-17-yl)-2-oxoethyl)-4-(pyridin-4-yl)-1,4-dihydro-5H-tetrazol-5-one] | 1441 + 184.6 sec | 0.3 ± 0.2 | 0.0 | 1800 + 0.0 sec | 1800 + 0.0 sec | 0.0 + 0.0 | 43.5 | 381 | 0.84 | 2.12 | 227 | 3 | 101 | 1930 | 38 | –
3 | Cn1nnn(CC(=O)[C@H]2CC[C@H]3[C@@H]4CC[C@@H]5C[C@](C)(O)CC[C@@H]5[C@H]4CC[C@]23C)c1=O [Example 2, 1-(2-((3R,5R,8R,9R,10S,13S,14S,17S)-3-hydroxy-3,13-dimethylhexadecahydro-1H-cyclopenta[a]phenanthren-17-yl)-2-oxoethyl)-4-methyl-1,4-dihydro-5H-tetrazol-5-one] | 1085.4 ± 184.6 s | 0.7 ± 0.2 | 0.0 | 1800 + 0.0 sec | 1800 + 0.0 sec | 0.0 + 0.0 | 10.7 | 1480 | 1.46 | 1.16 | 1380 | 1 | 66.3 | 4900 | 110 | –
4 | C[C@@]1(O)CC[C@H]2[C@H](CC[C@@H]3[C@@H]2CC[C@]2(C)[C@@H](C(=O)Cn4nnn(-c5ccccc5)c4=O)CC[C@@H]32)C1 [Example 10, 1-(2-((3R,5R,8R,9R,10S,13S,14S,17S)-3-hydroxy-3,13-dimethylhexadecahydro-1H-cyclopenta[a]phenanthren-17-yl)-2-oxoethyl)-4-phenyl-1,4-dihydro-5H-tetrazol-5-one] | 1485 + 210.2 sec | 0.3 ± 0.2 | 0.0 | 1800 + 0.0 sec | 1800 + 0.0 sec | 0.0 + 0.0 | 9 | 1840 | 4.22 | 2.16 | 491 | 3 | 60.5 | 5510 | 27 | –
5 | C[C@@]1(O)CC[C@H]2[C@H](CC[C@@H]3[C@@H]2CC[C@]2(C)[C@@H](C(=O)Cn4nnn(-c5ccc(F)cc5)c4=O)CC[C@@H]32)C1 [Example 11, 1-(4-fluorophenyl)-4-(2-((3R,5R,8R,9R,10S,13S,14S,17S)-3-hydroxy-3,13-dimethylhexadecahydro-1H-cyclopenta[a]phenanthren-17-yl)-2-oxoethyl)-1,4-dihydro-5H-tetrazol-5-one] | 717.4 ± 238.5 s | 0.8 ± 0.2 | 0.0 | 1800 + 0.0 sec | 1800 + 0.0 sec | 0.0 + 0.0 | 13.5 | 1230 | 3.9 | 2.42 | 274 | 1 | 52.3 | 3200 | 44 | 795
6 | Cn1nccc1-n1nnn(CC(=O)[C@H]2CC[C@H]3[C@@H]4CC[C@@H]5C[C@](C)(O)CC[C@@H]5[C@H]4CC[C@]23C)c1=O [Example 26, 1-(2-((3R,5R,8R,9R,10S,13S,14S,17S)-3-hydroxy-3,13-dimethylhexadecahydro-1H-cyclopenta[a]phenanthren-17-yl)-2-oxoethyl)-4-(1-methyl-1H-pyrazol-5-yl)-1,4-dihydro-5H-tetrazol-5-one] | 1547.8 ± 139.2 s | 0.3 ± 0.2 | 0.0 | 1800 + 0.0 sec | 1800 + 0.0 sec | 0.0 + 0.0 | 15.7 | 1010 | 1.39 | 1.75 | 827 | 1 | 77.1 | 3910 | 64 | –
